Our source for the IC50 values is ChEMBL document CHEMBL1201861, “Genomics of Drug Sensitity in Cancer screening data, Wellcome Trust Sanger Institute”.

In one test the test system is KYSE-520 cell line. Kind of test: cells. The class given is functional, cell-based, Homo sapiens. The settings on record: Homo sapiens, KYSE-520.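 Note: growth inhibition of human KYSE-520 cells, read out with a viability assay.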
The next test relates to KYSE-70 cell line. The experiment in a line: cells. The class given is functional, cell-based, Homo sapiens. The settings on record: Homo sapiens, KYSE-70.
A further test relates to BC1 cell line. The experiment in a line: SANGER: Inhibition of human BC-1 cell growth in a cell viability assay. The test is classed as functional, cell-based.
Another test concerns KYSE-150 cell line. Kind of test: cells. The class given is functional, cell-based, Homo sapiens. To be noted: Homo sapiens, KYSE-150.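 Note: growth inhibition of human KYSE-150 cells, read out with a cell viability assay.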
The next test relates to KU812 cell line. The experiment in a line: cells. To be noted: Homo sapiens. The class given is functional, cell-based.
The test system of another test is LCLC-103H cell line. The experiment in a line: cells. The class given is functional, cell-based, Homo sapiens. The settings on record: Homo sapiens, LCLC-103H.
For the next test, the system named is HMV-2 cell line. The experiment in a line: cells. The class given is functional, cell-based, Homo sapiens. The settings on record: Homo sapiens, HMV-2.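 Note: growth inhibition of HMV-II cells, read out with a cell viability assay.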
For the next test, the system named is LXF-289 cell line. The experiment in a line: cells. The test is classed as functional, cell-based, Homo sapiens. To be noted: Homo sapiens, LXF-289.
The subject of a further test is Caov-3 cell line. The experiment in a line: cells. The test is classed as functional, cell-based. To be noted: Homo sapiens.
Another test has as its system A253 cell line. Kind of test: cells. The test is classed as functional, cell-based, Homo sapiens. The settings on record: Homo sapiens, A253.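 Note: growth inhibition of A253 cells, read out with a cell viability assay.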

Description for A253 cell line: SANGER: Inhibition of human A253 cell growth in a cell viability assay.
Description for Caov-3 cell line: SANGER: Inhibition of human Caov-3 cell growth in a cell viability assay.
Description for HMV-2 cell line: SANGER: Inhibition of human HMV-II cell growth in a cell viability assay.
Description for KU812 cell line: SANGER: Inhibition of human KU812 cell growth in a cell viability assay.
Description for KYSE-150 cell line: SANGER: Inhibition of human KYSE-150 cell growth in a cell viability assay.
Description for KYSE-520 cell line: SANGER: Inhibition of human KYSE-520 cell growth in a cell viability assay.
Description for KYSE-70 cell line: SANGER: Inhibition of human KYSE-70 cell growth in a cell viability assay.
Description for LCLC-103H cell line: SANGER: Inhibition of human LCLC-103H cell growth in a cell viability assay.
Description for LXF-289 cell line: SANGER: Inhibition of human LXF-289 cell growth in a cell viability assay.

As to `C[C@@]1(C(=O)Nc2ccc(F)nc2)CCCN1c1nc(Nc2cc(C3CC3)n[nH]2)c2cccn2n1` [BMS-754807], the IC50 is greater than 2560 nM with KYSE-520 cell line; greater than 2560 nM in the test with KYSE-70 cell line; 587 nM in the test on BC1 cell line; 2250 nM in the test with KYSE-150 cell line; greater than 2560 nM in the test on KU812 cell line; 788 nM in the test with LCLC-103H cell line. The IC50 in the test on HMV-2 cell line was 183 nM; in the test with LXF-289 cell line it was greater than 2560 nM; in the test with Caov-3 cell line it was greater than 2560 nM; with A253 cell line it was greater than 2560 nM.

As a reminder, the IC50 is the concentration that inhibits the measured activity by half. A higher IC50 goes with weaker potency in that assay.
